Assay [1] relates to wildtype Wnt signaling cascade. As to the kind of experiment: HEK293 TOP assay (Super TopFlash luciferase reporter, Wnt-3a stimulated). The format is cell-based. Conditions: Homo sapiens, HEK293, 16 h, HEK293 TOP reporter cells, Wnt3a at EC50, 16 hours. The method in brief:
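HEK293 cells stably carrying Super TopFlash (TOP) run in parallel with FOP cells, 10000/well plated 24 h ahead, stimulated with recombinant human Wnt-3a. Compounds tested 50 μM to 15 nM in 3.16-fold steps in CAFTY buffer pH 7.4 with 2 mM Ca^2+ and 0.01% BSA; luciferase read-out.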
In general terms: Reporter assays use an easily measured gene product as a stand-in for the process of interest.

Assay [2] relates to HEK293 cells cotransfected with the FOP control vector. The assay is described as follows: HEK293 FOP assay (control reporter with non-functional TCF elements). The format is cell-based. The note with it: Homo sapiens, 16 hours. The method in brief: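 Stable HEK293 line carrying FOP control reporter (randomized non-functional TCF sites, with pcDNA3), Geneticin-selected, plated 24 h before assay. Stimulated with recombinant human Wnt-3a (2500-5 ng/ml) and compounds 50 μM–15 nM (3.16-fold steps) in CAFTY buffer pH 7.4 with 2 mM Ca2+, 0.01% BSA, run parallel to TOP line.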

For the next assay, the target named is T1, TNKS2 (Homo sapiens, UniProt Q9H2K2).
T1 construct: purchased BPS Bioscience, San Diego, USA 80572 (TNKS2 Histone Ribosylation Assay Kit)
T1 sequence (Q9H2K2 1-1166): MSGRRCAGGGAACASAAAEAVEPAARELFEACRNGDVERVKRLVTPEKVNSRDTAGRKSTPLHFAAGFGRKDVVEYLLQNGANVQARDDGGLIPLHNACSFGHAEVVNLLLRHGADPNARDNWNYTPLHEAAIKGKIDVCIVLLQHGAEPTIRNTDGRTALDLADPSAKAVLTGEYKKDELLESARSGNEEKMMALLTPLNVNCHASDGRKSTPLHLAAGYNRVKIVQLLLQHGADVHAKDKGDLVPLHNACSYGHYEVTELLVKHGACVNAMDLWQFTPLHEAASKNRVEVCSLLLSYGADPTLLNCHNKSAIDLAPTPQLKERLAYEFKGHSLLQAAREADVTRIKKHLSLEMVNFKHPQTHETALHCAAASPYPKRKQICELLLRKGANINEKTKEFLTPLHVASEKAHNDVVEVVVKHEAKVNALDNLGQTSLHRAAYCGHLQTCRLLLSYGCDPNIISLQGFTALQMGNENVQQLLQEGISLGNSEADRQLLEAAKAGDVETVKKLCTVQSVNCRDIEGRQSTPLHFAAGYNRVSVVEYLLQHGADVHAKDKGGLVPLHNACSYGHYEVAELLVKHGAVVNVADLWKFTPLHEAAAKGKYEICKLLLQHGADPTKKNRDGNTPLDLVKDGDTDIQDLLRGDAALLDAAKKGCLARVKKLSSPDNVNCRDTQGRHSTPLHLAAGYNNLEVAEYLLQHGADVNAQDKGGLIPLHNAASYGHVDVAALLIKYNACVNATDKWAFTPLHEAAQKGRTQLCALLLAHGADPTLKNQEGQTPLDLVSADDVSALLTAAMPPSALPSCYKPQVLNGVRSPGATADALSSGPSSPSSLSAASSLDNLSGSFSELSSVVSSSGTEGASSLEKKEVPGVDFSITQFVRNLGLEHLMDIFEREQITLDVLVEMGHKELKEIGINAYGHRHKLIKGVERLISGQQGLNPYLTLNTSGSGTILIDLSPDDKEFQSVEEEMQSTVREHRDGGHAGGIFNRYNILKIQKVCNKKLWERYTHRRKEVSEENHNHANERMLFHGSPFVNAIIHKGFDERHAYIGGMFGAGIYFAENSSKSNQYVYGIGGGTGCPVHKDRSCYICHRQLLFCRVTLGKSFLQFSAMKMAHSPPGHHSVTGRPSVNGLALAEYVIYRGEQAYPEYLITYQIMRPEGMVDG
As to the kind of experiment: TNKS2 Assay B (auto-parsylation, [3H]-NAD+ SPA). The format is biochemical. The note with it: 6 nM TNKS2, auto-parsylation, over night at room temperature.

The IC50 is the concentration that gives 50% inhibition. A lower IC50 goes with greater potency in that assay.

In the case of `O=C(N[C@H]1CC[C@@]2(CCCN(c3cc(F)c(F)cc3Cl)C2=O)CC1)c1[nH]cnc1C(=O)N1CCOCC1` [Example 323, N-[(trans)-2-(2-chloro-4,5-difluorophenyl)-1-oxo-2-azaspiro[5.5]undec-9-yl]-4-(morpholin-4-ylcarbonyl)-1H-imidazole-5-carboxamide], the IC50 in assay [1] was 0.097 µM; in assay [2], at least 50 µM; at TNKS2 it was 0.93 µM.

With `COCc1cc(C)n2ncc(C(=O)N[C@H]3CC[C@]4(CCN(c5ccc(F)cc5Cl)C4=O)CC3)c2n1` [Example 337, N-[(cis)-2-(2-chloro-4-fluorophenyl)-1-oxo-2-azaspiro[4.5]dec-8-yl]-5-(methoxymethyl)-7-methylpyrazolo[1,5-a]pyrimidine-3-carboxamide], the IC50 in assay [1] is 1.1 µM; in assay [2], at least 50 µM; against TNKS2, over 10 µM.

On to `COC(=O)c1ccc(N2CC[C@]3(CC[C@@H](NC(=O)c4cnn5cccnc45)CC3)C2=O)c(Cl)c1` [Example 362, methyl 3-chloro-4-{(trans)-1-oxo-8-[(pyrazolo[1,5-a]pyrimidin-3-ylcarbonyl)amino]-2-azaspiro[4.5]dec-2-yl}benzoate], for which the half-maximal inhibitory concentration (IC50) in assay [1] came out at 0.0039 µM; in assay [2] it was 31 µM; against TNKS2 it was 0.033 µM.

As to `O=C(N[C@H]1CC[C@]2(CCN(c3ccc(F)cc3Cl)C2=O)CC1)c1c[nH]c2cccnc12` [Example 332, N-[(cis)-2-(2-chloro-4-fluorophenyl)-1-oxo-2-azaspiro[4.5]dec-8-yl]-1H-pyrrolo[3,2-b]pyridine-3-carboxamide], the IC50 came out at 0.57 µM in assay [1], 35 µM in assay [2] and 4.7 µM against TNKS2.

As to `COCCNC(=O)c1nc[nH]c1C(=O)N[C@H]1CC[C@]2(CCN(c3ccc(F)cc3Cl)C2=O)CC1` [Example 341, N^5-[(cis)-2-(2-chloro-4-fluorophenyl)-1-oxo-2-azaspiro[4.5]dec-8-yl]-N^4-(2-methoxyethyl)-1H-imidazole-4,5-dicarboxamide], the results for the IC50 (in assay [1]; in assay [2]; against TNKS2) were 2.9 µM, at least 50 µM and over 10 µM, respectively.

With `Cc1cc(N2CC[C@]3(CC[C@@H](NC(=O)c4[nH]cnc4C(N)=O)CC3)C2=O)c(Cl)cc1F` [Example 291, N^5-[(trans)-2-(2-chloro-4-fluoro-5-methylphenyl)-1-oxo-2-azaspiro[4.5]dec-8-yl]-1H-imidazole-4,5-dicarboxamide], the IC50 in assay [1] was 0.0049 µM; in assay [2] it was at least 50 µM; on TNKS2 it was 0.0086 µM.

Consider `O=C(N[C@H]1CC[C@@]2(CCN(c3ccc(F)cc3Cl)C2=O)CC1)c1cnn2c(C(F)F)cc(C(F)F)nc12` [Example 331, N-[(trans)-2-(2-chloro-4-fluorophenyl)-1-oxo-2-azaspiro[4.5]dec-8-yl]-5,7-bis(difluoromethyl)pyrazolo[1,5-a]pyrimidine-3-carboxamide], for which the IC50 in assay [1] came to 0.0065 µM; in assay [2], 30 µM; at TNKS2, 0.076 µM.

Consider `O=C(N[C@H]1CC[C@@]2(CCCN(c3cc(F)c(F)cc3Cl)C2=O)CC1)c1[nH]cnc1C(=O)N1CC(F)C1` [Example 316, N-[(trans)-2-(2-chloro-4,5-difluorophenyl)-1-oxo-2-azaspiro[5.5]undec-9-yl]-4-[(3-fluoroazetidin-1-yl)carbonyl]-1H-imidazole-5-carboxamide], for which the IC50 in assay [1] is 0.0016 µM; in assay [2], at least 0.5 µM; at TNKS2, 0.005 µM.

For `O=C(N[C@H]1CC[C@@]2(CCN(c3ccc(F)cc3Cl)C2=O)CC1)c1cnn2ccc(C(F)F)nc12` [Example 330, N-[(trans)-2-(2-chloro-4-fluorophenyl)-1-oxo-2-azaspiro[4.5]dec-8-yl]-5-(difluoromethyl)pyrazolo[1,5-a]pyrimidine-3-carboxamide], the results for the IC50 (in assay [1]; in assay [2]; on TNKS2) were 0.005 µM, 30 µM and 0.011 µM, respectively.

Regarding `O=C(N[C@H]1CC[C@@]2(CCN(c3ccc(F)cc3Cl)C2=O)CC1)c1nnc2cccnn12` [Example 347, N-[(trans)-2-(2-chloro-4-fluorophenyl)-1-oxo-2-azaspiro[4.5]dec-8-yl][1,2,4]triazolo[4,3-b]pyridazine-3-carboxamide], the IC50 in assay [1] was 2.4 µM; in assay [2], at least 50 µM; against TNKS2, 4 µM.

On to `COCCNC(=O)c1nc[nH]c1C(=O)N[C@H]1CC[C@@]2(CCCN(c3cc(C)c(F)cc3Cl)C2=O)CC1` [Example 306, N^5-[(trans)-2-(2-chloro-4-fluoro-5-methylphenyl)-1-oxo-2-azaspiro[5.5]undec-9-yl]-N^4-(2-methoxyethyl)-1H-imidazole-4,5-dicarboxamide], for which the figures for the IC50 (in assay [1]; in assay [2]; against TNKS2) were 0.012 µM, at least 0.5 µM and 0.067 µM, respectively.

As to `O=C(N[C@H]1CC[C@@]2(CCN(c3ccc(F)cc3Cl)C2=O)CC1)c1cnc2ccccn12` [Example 223, N-[(trans)-2-(2-chloro-4-fluorophenyl)-1-oxo-2-azaspiro[4.5]dec-8-yl]imidazo[1,2-a]pyridine-3-carboxamide], the figures for the concentration for half-maximal inhibition (IC50) (in assay [1]; in assay [2]; against TNKS2) were 0.27 µM, at least 50 µM and 1.2 µM, respectively.

`O=C(N[C@H]1CC[C@@]2(CCN(c3ccc(F)cc3Cl)C2=O)CC1)c1n[nH]c2ccccc12` [Example 251, N-[trans-2-(2-chloro-4-fluorophenyl)-1-oxo-2-azaspiro[4.5]dec-8-yl]-1H-indazole-3-carboxamide]: the concentration for half-maximal inhibition (IC50) was 2.5 µM in assay [1], at least 50 µM in assay [2] and over 10 µM at TNKS2.

Consider `NC(=O)c1nc[nH]c1C(=O)N[C@H]1CC[C@@]2(CCCN(c3cc(F)c(F)cc3Cl)C2=O)CC1` [Example 320, N^5-[(trans)-2-(2-chloro-4,5-difluorophenyl)-1-oxo-2-azaspiro[5.5]undec-9-yl]-1H-imidazole-4,5-dicarboxamide], for which the IC50 in assay [1] is 0.027 µM; in assay [2] it was at least 50 µM; at TNKS2, 0.0094 µM.

Turning to `O=C(N[C@H]1CC[C@@]2(CCN(c3ccc(F)cc3Cl)C2=O)CC1)c1n[nH]c2cccc(I)c12` [Example 248, N-[(trans)-2-(2-chloro-4-fluorophenyl)-1-oxo-2-azaspiro[4.5]dec-8-yl]-4-iodo-1H-indazole-3-carboxamide], the IC50 is 5.1 µM in assay [1], at least 50 µM in assay [2] and over 10 µM against TNKS2.

As for `COCc1cc(C)n2ncc(C(=O)N[C@H]3CC[C@@]4(CCN(c5c(F)cc(F)cc5Cl)C4=O)CC3)c2n1` [Example 242, N-[(trans)-2-(2-chloro-4,6-difluorophenyl)-1-oxo-2-azaspiro[4.5]dec-8-yl]-5-(methoxymethyl)-7-methylpyrazolo[1,5-a]pyrimidine-3-carboxamide], the values for the IC50 (in assay [1]; in assay [2]; on TNKS2) were 0.0071 µM, at least 50 µM and 0.021 µM, respectively.

`O=C(N[C@H]1CC[C@@]2(CCN(c3ccccc3Cl)C2=O)CC1)c1c[nH]c2cccnc12` [Example 274, N-[(trans)-2-(2-chlorophenyl)-1-oxo-2-azaspiro[4.5]dec-8-yl]-1H-pyrrolo[3,2-b]pyridine-3-carboxamide]: the results for the IC50 (in assay [1]; in assay [2]; at TNKS2) were 0.0028 µM, 38 µM and 0.071 µM, respectively.

As for `O=C(N[C@H]1CC[C@H](C(=O)Nc2ccc(F)cc2Cl)CC1)c1c(Cl)nc2ccccn12` [Example 255, 2-chloro-N-{trans-4-[(2-chloro-4-fluorophenyl)carbamoyl]cyclohexyl}imidazo[1,2-a]pyridine-3-carboxamide], the half-maximal inhibitory concentration (IC50) in assay [1] was at least 50 µM; in assay [2], at least 50 µM; against TNKS2, over 10 µM.

Source of the values: US20180148418A1, “AMIDO-SUBSTITUTED CYCLOHEXANE DERIVATIVES” (Bayer Pharma Aktiengesellschaft, priority 2015, published 2018).
